{
  "source": "patent US20250163522A1",
  "about": "“METHODS FOR PRESERVING HEALTHY INTESTINAL MICROBIOME DURING GROWTH PROMOTER ADMINSTRATION” (BIOMEDIT, LLC, priority 2022, published 2025)",
  "format_in_all_cases": "in vivo, chickens (Gallus gallus)",
  "key": {"[1]": {"system": "cecal microbiome", "assay": "Shotgun metagenomics (functional/taxonomic profiles, GSEA) of cecal microbiome, day 35 broilers", "details": "for functional processes enriched in cecal microbiome relative to controls (GSEA): day 35 cecal samples", "protocol": "74 frozen cecal samples from day 35 birds were sent to CosmosID (Rockville, MD) for shotgun metagenomics sequencing. DNA was extracted using the ZymoBIOMICS DNA Miniprep Kit (ZymoBIOMICS, Irvine, CA) according to the manufacturers protocol. The isolated DNA was quantified by Qbit (ThermoFisher, Coon Rapids, MN). DNA libraries were prepared using the Illumina Nextera XT library preparation kit (Illumina, San Diego, CA), with a modified protocol. Libraries were then sequenced on an Illumina HiSeq platform 2×150 bp.\nReads were trimmed and Illumina adapters removed using Trimmomatic (v 0.39) (Bolger et al., Bioinformatics 30, 2114-2120 (2014)) with options SLIDINGWINDOW:5:20 LEADING:3 TRAILING:3. Host reads (Gallus gallus, GenBank assembly GCA_000002315) and spike-in reads from Vibrio harveyii (ATCC 14126) were removed using Bowtie2 (v. 2.3.5.1) (Langmead et al., Nat Methods 9, 357-359 (2012)).\nTaxonomic profiling of individual reads was carried out using Kaiju (v. 1.7.3) (Menzel et al., Nat Commun 7, 11257 (2016)) with the nr_euk database. Kaiju outputs were summarized for each read as the number of bases aligned to proteins in the reference database. In cases of individual reads mapping to more than one taxonomic group, the number of bases assigned to each taxon was calculated as the alignment length (in base pairs) multiplied by the fraction of bases assigned unambiguously to said taxon out of all the taxa to which the read mapped. The numbers of assigned bases per read were used to estimate species-level relative abundances using metametamerge (v. 1.1) (Piro, V. C., et al., Microbiome 5, 101 (2017).) taking into account the average coding length per species in the nr_euk database.\nFunctional profiling was done by first assembling the reads from each sample into contigs using Spades (v. 3.13.1, option --meta) (Nurk, S. et al., Genome Res 27, 824-834 (2017)), with default parameters, followed by protein prediction with Prokka (v. 1.14.5) (Seemann, T. Prokka: Bioinformatics 30, 2068-2069 (2014).). Predicted protein sequences were aligned to a reference database and using Diamond (v. 0.9.30) (Buchfink, B. et al. Nat Methods 18, 366-368 (2021)) and annotated based on the function assigned to the top hit in the database. To avoid misannotations, (Plata, G. et al. Nat Chem Biol 8, 848-854 (2012)) the inventors only considered hits with at least 70% identity and 70% query coverage. The reference database was built starting from 46,181 complete bacterial genomes downloaded from the PATRIC (Davis, J. J. et al. Nucleic Acids Res 48, D606-D612 (2020)) database representing at most 10 genomes per species from ˜400 taxonomic families including those most frequently observed in broiler microbiomes. To speed up functional annotations, protein sequences within each family in the database were clustered at 90% sequence identity using CD-HIT (v. 4.8.1) (Huang, Y. et al. Bioinformatics 26, 680-682 (2010)) and the longest sequence from each cluster was kept for the diamond search.\nTo quantify the abundance of each function per sample, reads were mapped to the corresponding contigs using BWA (v. 0.7.17) (Li, H. & Durbin, R. Bioinformatics 25, 1754-1760 (2009)), and reads mapping to each predicted protein were counted with HTseq (v. 0.11.3) (Anders, S. et al. Bioinformatics 31, 166-169 (2015)). Read counts per RAST functional role were TPM normalized based on the Prokka protein lengths (Zhao, S. et. al. RNA 26, 903-909 (2020)) and expressed in units of mean copy numbers per genome by calculating a normalization factor such that the median abundance of a set of universal-single copy bacterial genes (Creevey, C. J. et al. PLOS One 6, e22099 (2011)) was set to 1 (Manor, O. & Borenstein, E. Genome Biology 16, 53 (2015)). A similar procedure was used to produce a copy-number normalized matrix of functional roles across samples stratified by the bacterial genera of the protein hits used to transfer functional annotations. […]"}, "[2]": {"system": "cecal microbiome", "assay": "16S rRNA amplicon profiling of cecal microbiome of AGP treated broilers", "details": "days 21 and 35", "protocol": "Total DNA from frozen cecal content samples were extracted using the Lysis and Purity kit (Shoreline Biome, Farmington, CT) following the manufacturer's protocol. The resulting DNA was used for library preparation with the Shoreline Biome V4 16S DNA Purification and Library Prep Kit (Shoreline Biome, Farmington, CT). PCR amplification of the V4 region of the 16S rRNA gene was performed using the 515F (5′[…]) and 806R (5′-[…]) primers. The resulting amplicons were then sequenced using 2×250 bp paired-end kits on the Illumina MiSeq platform.\nPaired raw reads were processed with cutadapt (v. 2.5) (Martin, M. Cutadapt 2011 17, 3, doi: 10.14806/ej. 17.1.200 (2011)) followed by DADA2 (v.1.12.1) (Callahan et al., Nat Methods 13, 581-581 (2016)) to generate a matrix of read counts per sample at the level of amplicon sequence variants (ASVs). […] Reads assigned to the Vibrionaceae family were removed from the analysis, these correspond to a small amount (˜1% relative abundance) of Vibrio harveyii that was spiked in some of the samples. The mean sequencing depth after filtering was 43,955 reads per sample (standard deviation=12,391). The Chao, Simpson, and Shannon measures of alpha diversity were calculated from the matrix of raw counts using the scikit-bio (v. 0.5.6) python package and compared across treatments at each sampling time using the Mann-Whitney U test. […]"}, "[3]": {"system": "AMR genes in the cecum microbiome", "assay": "AMR gene abundance analysis (AMR++ pipeline) of cecal microbiome", "details": "day 35 cecum; for AMR gene classes changed compared to controls: Mann-Whitney U p-value<0.05; for total number of different AMR genes detected: compared to control; for total AMR gene abundance compared to control: RPKM", "protocol": "AMR gene abundances per sample were determined using the AMR++ pipeline (Lakin, S. M. et al., Nucleic Acids Res 45, D574-D580 (2017)) (v. 2.0.2) starting from the raw metagenomics sequences and using the MegaRes (v. 2.0.0) database. Only genes involved in drug resistance were considered. The AMR gene counts per sample obtained from AMR++ were expressed in unites of reads per kilobase per million reads (RPKM) based on the corresponding gene lengths from the MegaRes database. RPKM values across treatments were compared using the Mann-Whitney U test."}, "[4]": {"system": "Ross 708 male broilers", "assay": "Clinical study of in-feed AGPs in broilers: weight gain and feed conversion", "details": "in-feed: 50 g/ton BMD, 20 g/ton avilamycin, 16.5 g/ton virginiamycin, 70 g/ton narasin; 35 days", "text": "500 healthy Ross 708 male broilers sourced from a commercial hatchery were used in the experiment. […] Birds were individually tagged with a unique identifier and were randomly assigned to one of 25 floor pens (20 animals per pen). Groups of 5 pens were assigned to each of 5 different treatments. The 5 treatments included: 1) control birds fed least-cost diets as follows: A starter diet was fed from days 0 to 14 of the study, followed by a grower diet (14-28d) and a finisher diet (28-35d). 2) Birds fed the above diets supplemented with 50 g/ton BMD. 3) Supplemented with 20 g/ton avilamycin. 4) Supplemented with 16.5 g/ton Virginiamycin. And 5) supplemented with 70 g/ton narasin. Birds were raised for 35 days in a barn on top of used litter.\nIndividual body weights were collected on days 0, 7, 21 and 35. Pen weights were collected on days 14 and 28. Feed weigh backs for each pen were done on days 7, 14, 21, 28 and 35 of the study. Average bird weights and feed intake per pen were used to calculate weekly values of average daily gain and feed conversion ratios. Weekly values were compared between treatments using the Mann Whitney U test. On days 7, 21 and 35 three birds per pen were randomly selected and euthanized for the collection of cecal contents and blood. Blood was collected via wing vein venipuncture, except for birds that were too small, in which cases direct heart puncture was used. In both cases, blood was collected into vacutainer tubes and centrifuged to obtain serum. Cecal samples were collected by aseptically squeezing the cecum content into a sterile tube. Cecal samples were placed on dry ice immediately after collection. All samples were stored at −80° C. until processing."}},
  "note": "Entries after “also recorded” stand apart in the source; their conditions may differ.",
  "data": [
    {"compound": "COC[C@H]1O[C@@H](OC2OC[C@@H]3O[C@]4(O[C@H]3[C@H]2OC(=O)C(C)C)O[C@H](C)[C@@](O)(C(C)=O)[C@@H]2OCO[C@H]24)[C@@H](OC)[C@@H](O)[C@@H]1O[C@@H]1O[C@H](C)[C@H](OC)[C@H](O[C@H]2C[C@@]3(C)OC4(C[C@@H](O)[C@H](O[C@H]5C[C@@H](O)[C@H](OC(=O)c6c(C)c(Cl)c(O)c(Cl)c6OC)[C@@H](C)O5)[C@@H](C)O4)O[C@@H]3[C@@H](C)O2)[C@H]1O", "note": "(stereo partly drawn) [avilamycin]", "values": [
      {"measurement": "functional processes enriched in cecal microbiome relative to controls (GSEA)", "setting": "[1]", "result": "protein synthesis and the Entner-Doudoroff pathway; also recorded: methionine metabolism, glycolysis, sporulation, and isoprenoid synthesis"},
      {"measurement": "similarity of 16S cecal microbiome composition to control samples (ANOSIM R score)", "setting": "[2]", "result": "higher similarity"},
      {"measurement": "effect on AMR gene abundance profiles", "setting": "[3]", "result": "minor"},
      {"measurement": "AMR gene classes changed compared to controls", "setting": "[3]", "result": "reduced the abundance of genes associated with resistance to nucleosides and macrolides"},
      {"measurement": "total number of different AMR genes detected", "setting": "[3]", "result": "higher"},
      {"measurement": "impact on bird performance", "setting": "[4]", "result": "smallest effects on performance"}
    ]},
    {"compound": "Bacitracin methylene disalicylate [BMD]", "values": [
      {"measurement": "functional processes enriched in cecal microbiome relative to controls (GSEA)", "setting": "[1]", "result": "biotin synthesis; also recorded: propanediol utilization, molybdenum-containing cofactor synthesis and CO2 fixation via the Wood-Ljungdahl pathway; also recorded: protein synthesis and the Entner-Doudoroff pathway"},
      {"measurement": "similarity of 16S cecal microbiome composition to control samples (ANOSIM R score)", "setting": "[2]", "result": "higher similarity"},
      {"measurement": "effect on AMR gene abundance profiles", "setting": "[3]", "result": "minor"},
      {"measurement": "total AMR gene abundance compared to control", "setting": "[3]", "result": "significant increase"},
      {"measurement": "impact on bird performance", "setting": "[4]", "result": "smallest effects on performance"}
    ]},
    {"compound": "virginiamycin", "values": [
      {"measurement": "Salmonella and Escherichia relative abundance in cecum", "setting": "[1]; day 35", "result": "~50", "unit": "%"},
      {"measurement": "functional processes enriched in cecal microbiome relative to controls (GSEA)", "setting": "[1]", "result": "betaine and pyridoxine biosynthesis, stress response, bacterial secretion systems, antimicrobial resistance (AMR), and biosynthesis of Gram-negative cell wall components"},
      {"measurement": "effect on AMR gene abundance profiles", "setting": "[3]", "result": "significantly different AMR gene abundance profiles"},
      {"measurement": "AMR gene classes changed compared to controls", "setting": "[3]", "result": "enriched (Mann-Whitney U p-value<0.05) for genes involved in resistance to multiple drugs"},
      {"measurement": "total AMR gene abundance compared to control", "setting": "[3]", "result": "significant increase"},
      {"measurement": "total number of different AMR genes detected", "setting": "[3]", "result": "higher"},
      {"measurement": "impact on bird performance", "setting": "[4]", "result": "increased performance compared to controls"}
    ]}
  ]
}
